Values after ≈ are worked out from the molar mass of the structure shown. Active and inactive are the calls of the source. The calls are words filed in the database; no cut-off is given here. Where only a bound is given, the exact number is not on record here.

Nicotinamide phosphoribosyltransferase, sequence (P43490 whole entry): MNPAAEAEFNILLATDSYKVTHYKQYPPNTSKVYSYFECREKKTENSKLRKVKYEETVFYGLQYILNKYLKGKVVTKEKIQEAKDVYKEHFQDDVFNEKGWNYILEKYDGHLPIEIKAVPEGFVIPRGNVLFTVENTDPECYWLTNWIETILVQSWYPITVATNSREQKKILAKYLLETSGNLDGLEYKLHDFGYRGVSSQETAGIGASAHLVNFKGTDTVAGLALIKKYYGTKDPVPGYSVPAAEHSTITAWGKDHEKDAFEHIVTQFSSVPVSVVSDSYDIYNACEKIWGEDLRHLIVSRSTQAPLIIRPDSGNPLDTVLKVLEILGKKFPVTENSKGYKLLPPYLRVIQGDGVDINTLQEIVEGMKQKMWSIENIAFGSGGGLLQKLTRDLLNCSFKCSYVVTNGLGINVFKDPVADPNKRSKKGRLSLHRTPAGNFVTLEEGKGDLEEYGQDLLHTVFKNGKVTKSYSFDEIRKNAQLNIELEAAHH

The first series addresses Nicotinamide phosphoribosyltransferase (Homo sapiens, UniProt P43490). The series is described as follows: Inhibition of C-terminal His-6-tagged full length human NAMPT expressed in Escherichia coli (DE3) cells after 30 mins by mass spectrometry-based analysis.
Details: not given
`O=C(NCc1ccc(S(=O)(=O)N2CCN(C3COC3)CC2)cc1)c1cnc2[nH]ncc2c1` displayed an IC50 of 440 nM.
The compound `Cn1ncc2cc(C(=O)NCc3ccc(S(=O)(=O)c4ccccc4)cc3)cnc21` showed an IC50 of 1700 nM.
Regarding `CCCn1cc(S(=O)(=O)c2ccc(CNC(=O)c3cnc4[nH]ncc4c3)cc2)cn1`, the IC50 was determined as 10 nM.
The compound `O=C(NCc1ccc(S(=O)(=O)N2CCCCC2)cc1)c1cnc2[nH]ncc2c1` had an IC50 of 100 nM.
The compound `O=C(NCc1ccc(S(=O)(=O)c2ccccc2)cc1)c1ccc2[nH]ncc2n1` came in with an IC50 of 1300 nM.
As to `CCn1cc(S(=O)(=O)c2ccc(CNC(=O)c3cnc4[nH]ncc4c3)cc2)cn1`, half-maximal inhibition (IC50) required 190 nM.
As to `O=C(NCc1ccc(S(=O)(=O)c2cccc(OC(F)(F)F)c2)cc1)c1cnc2[nH]ncc2c1`, the IC50 came out at 7.7 nM.
In turn, `O=C(NCc1ccc(S(=O)(=O)N2CCC(O)CC2)cc1)c1cnc2[nH]ncc2c1` displayed an IC50 of 410 nM.
In turn, `O=C(NCc1ccc(S(=O)(=O)c2cncc(C(F)(F)F)c2)cc1)c1cnc2[nH]ncc2c1` came in with an IC50 of 10 nM.

Test system in the next series: not listed separately
The experiment in a line: Apparent permeability from apical to basolateral side in MDCK cells at 10 uM by LC-MS/MS analysis. As to conditions: dog. It counts as ADME, cell-based, Canis lupus familiaris.
For the compound `CCCn1cc(S(=O)(=O)c2ccc(CNC(=O)c3cnc4[nH]ncc4c3)cc2)cn1`, the Papp A→B at 10 µM was 1.9 ×10⁻⁶ cm/s.
For `O=C(NCc1ccc(S(=O)(=O)c2cccc(OC(F)(F)F)c2)cc1)c1cnc2[nH]ncc2c1`, the Papp A→B at 10 µM was found to be 4 ×10⁻⁶ cm/s.
In the case of `O=C(NCc1ccc(S(=O)(=O)c2cc(F)cc(F)c2)cc1)c1cnc2[nH]ncc2c1`, the apparent permeability from apical to basolateral (Papp A→B) at 10 µM is 7.8 ×10⁻⁶ cm/s.
For the compound `O=C(NCc1ccc(S(=O)(=O)c2cncc(C(F)(F)F)c2)cc1)c1cnc2[nH]ncc2c1`, the Papp A→B at 10 µM stood at 4.4 ×10⁻⁶ cm/s.

In another series the test system is A2780. The series is described as follows: Antiproliferative activity against human A2780 cells assessed as cell viability after 72 hrs by SRB assay. It counts as functional, cell-based. As to conditions: A2780, 72 h.
For the compound `O=C(NCc1ccc(S(=O)(=O)c2ccccc2)cc1)c1cnc2[nH]ccc2c1`, the half-maximal inhibitory concentration (IC50) was above 2000 nM.
`O=C(NCc1ccc(S(=O)(=O)N2CCC(N3CCCC3)CC2)cc1)c1cnc2[nH]ncc2c1`: the half-maximal inhibitory concentration (IC50) worked out at 35 nM.
For the compound `O=C(NCc1ccc(S(=O)(=O)N2CCN(C3COC3)CC2)cc1)c1cnc2[nH]ncc2c1`, the IC50 was determined as 45 nM.
On to `Cn1ncc2cc(C(=O)NCc3ccc(S(=O)(=O)c4ccccc4)cc3)cnc21`, for which the IC50 is above 2000 nM.
With `CCCn1cc(S(=O)(=O)c2ccc(CNC(=O)c3cnc4[nH]ncc4c3)cc2)cn1`, the IC50 was 6.9 nM.
For `O=C(NCc1ccc(S(=O)(=O)N2CCCCC2)cc1)c1cnc2[nH]ncc2c1`, the IC50 came to 88 nM.
Turning to `O=C(NCc1ccc(S(=O)(=O)c2ccccc2)cc1)c1ccc2[nH]ncc2n1`, the IC50 is above 2000 nM.
On to `CCn1cc(S(=O)(=O)c2ccc(CNC(=O)c3cnc4[nH]ncc4c3)cc2)cn1`, for which the IC50 was determined as 31 nM.
Regarding `O=C(NCc1ccc(S(=O)(=O)c2cccc(OC(F)(F)F)c2)cc1)c1cnc2[nH]ncc2c1`, the IC50 was found to be 4.8 nM.
Turning to `O=C(NCc1ccc(S(=O)(=O)c2cc(F)cc(F)c2)cc1)c1cnc2[nH]ncc2c1`, the IC50 was found to be 6 nM.
For `O=C(NCc1ccc(S(=O)(=O)N2CCC(O)CC2)cc1)c1cnc2[nH]ncc2c1`, the IC50 amounted to 210 nM.
Consider `O=C(NCc1ccc(S(=O)(=O)c2cncc(C(F)(F)F)c2)cc1)c1cnc2[nH]ncc2c1`, for which the concentration for half-maximal inhibition (IC50) is 4.5 nM.

The next series deals with A2780. The series is described as follows: Antiproliferative activity against human A2780 cells assessed as cell viability after 72 hrs by SRB assay in presence of nitotinamide mononucleotide. The series is classed as functional, cell-based.
Details: not given
On the technique in general: Sulforhodamine B stains cellular protein and so reports cell mass.
Regarding `O=C(NCc1ccc(S(=O)(=O)c2ccccc2)cc1)c1cnc2[nH]ccc2c1`, the inhibition result is “inactive”.
In the case of `O=C(NCc1ccc(S(=O)(=O)N2CCC(N3CCCC3)CC2)cc1)c1cnc2[nH]ncc2c1`, the inhibition result was “inactive”.
In the case of `O=C(NCc1ccc(S(=O)(=O)N2CCN(C3COC3)CC2)cc1)c1cnc2[nH]ncc2c1`, the inhibition result is “inactive”.
On the same count and under the same terms, with `Cn1ncc2cc(C(=O)NCc3ccc(S(=O)(=O)c4ccccc4)cc3)cnc21` the entry was “inactive”; with `CCCn1cc(S(=O)(=O)c2ccc(CNC(=O)c3cnc4[nH]ncc4c3)cc2)cn1`, “inactive”; with `O=C(NCc1ccc(S(=O)(=O)N2CCCCC2)cc1)c1ccc2nccn2c1`, “inactive”.
For the compound `O=C(NCc1ccc(S(=O)(=O)N2CCCCC2)cc1)c1cnc2[nH]ncc2c1`, the inhibition result was “inactive”.
As for `O=C(NCc1ccc(S(=O)(=O)c2ccccc2)cc1)c1ccc2[nH]ncc2n1`, the inhibition entry is “inactive”.
As to `CCn1cc(S(=O)(=O)c2ccc(CNC(=O)c3cnc4[nH]ncc4c3)cc2)cn1`, the inhibition entry is “inactive”.
As to `O=C(NCc1ccc(S(=O)(=O)c2cccc(OC(F)(F)F)c2)cc1)c1cnc2[nH]ncc2c1`, the inhibition entry was “inactive”.
Regarding `O=C(NCc1ccc(S(=O)(=O)c2cc(F)cc(F)c2)cc1)c1cnc2[nH]ncc2c1`, the inhibition result is “inactive”.
Regarding `O=C(NCc1ccc(S(=O)(=O)c2ccccc2)cc1)c1ccc2nccn2c1`, the inhibition result is “inactive”.
As to `O=C(NCc1ccc(S(=O)(=O)N2CCC(O)CC2)cc1)c1cnc2[nH]ncc2c1`, the inhibition result was “inactive”.
As to `O=C(NCc1ccc(S(=O)(=O)c2cncc(C(F)(F)F)c2)cc1)c1cnc2[nH]ncc2c1`, the inhibition entry was “inactive”.

Test system in another series: not listed separately
The series is described as follows: Aqueous solubility of the compound in PBS at pH 7.2 by LC/CLND analysis. It counts as physicochemical.
Details: not given
The compound `CCCn1cc(S(=O)(=O)c2ccc(CNC(=O)c3cnc4[nH]ncc4c3)cc2)cn1` displayed a solubility of 8.8 µM (≈ 3.74 µg/mL).
Regarding `O=C(NCc1ccc(S(=O)(=O)c2cccc(OC(F)(F)F)c2)cc1)c1cnc2[nH]ncc2c1`, the solubility was below 1 µM.
Compound `O=C(NCc1ccc(S(=O)(=O)c2cc(F)cc(F)c2)cc1)c1cnc2[nH]ncc2c1` registered a solubility below 1 µM.
In the case of `O=C(NCc1ccc(S(=O)(=O)c2cncc(C(F)(F)F)c2)cc1)c1cnc2[nH]ncc2c1`, the solubility was below 1 µM.

Test system in a further series: not listed separately
The experiment in a line: Fraction unbound in mouse plasma at 5 uM by LC-MS/MS analysis. It counts as ADME, cell-free.
Details: not given
Take `CCCn1cc(S(=O)(=O)c2ccc(CNC(=O)c3cnc4[nH]ncc4c3)cc2)cn1`: the fraction unbound at 5 µM is 0.071.
The compound `O=C(NCc1ccc(S(=O)(=O)c2cccc(OC(F)(F)F)c2)cc1)c1cnc2[nH]ncc2c1` had a fraction unbound at 5 µM of 0.008.
Turning to `O=C(NCc1ccc(S(=O)(=O)c2cc(F)cc(F)c2)cc1)c1cnc2[nH]ncc2c1`, the free fraction (fraction unbound) at 5 µM came to 0.114.
`O=C(NCc1ccc(S(=O)(=O)c2cncc(C(F)(F)F)c2)cc1)c1cnc2[nH]ncc2c1` had a free fraction (fraction unbound) at 5 µM of 0.05.

As usually defined, the IC50 is the concentration that inhibits the measured activity by half. The Papp A→B is the apparent permeability from the apical to the basolateral side of a cell layer. As a reminder, the solubility is the dissolved amount per volume that the medium holds. High values mean much dissolved substance, low ones little dissolved substance. Usually fraction unbound stands for the share of the substance not bound to proteins or other matrix. Read a high fraction unbound as much free substance.

The values above are taken from ChEMBL document CHEMBL3259558, “Identification of amides derived from 1H-pyrazolo[3,4-b]pyridine-5-carboxylic acid as potent inhibitors of human nicotinamide phosphoribosyltransferase (NAMPT)” (Bioorg Med Chem Lett, 2013).
